{
  "source": "patent US20090197811A1",
  "about": "“ORALLY ADMINISTERED PEPTIDES TO IMPROVE OR PREVENT HEPATIC FIBROSIS” (University of Southern California, priority 2007, published 2009)",
  "key": {"[1]": {"tested_on": "C57Bl/6J mice", "test": "Western diet model: liver histology, assessment of steatosis and inflammation", "assay_type": "in vivo, mouse", "conditions": "for Fatty Change Degree of fat / Fatty Change Type (predominant type) / Inflammatory Clusters: individual mice", "method": "(§1) Studies were performed in male C5713L/6J mice (Jackson Laboratories, Bar Harbor Me.). Six groups were studied (n=3-5, see FIG. 1) with 4 mice per group at the outset, except for group 2, which was started with n=5; 1 mouse died in group 1. Groups 1, 2, and 3 received the Western diet for 9.5 months; during the last 2.5 months of the 9.5 months, group 2 received SR141716 10 mg/kg/day i.g., and group 3 received D-4F, 125 μg/mouse/day, in the drinking water. Groups 4, 5, and 6 received the Western diet for 7 months followed by standard chow for 2.5 months; during the 2.5 months on standard chow, group 5 received SR141716 and group 6 received D-4F as described for groups 2 and 3, respectively. Additional control groups were studied: 6-month old C57Bl/6J mice as age-matched controls (n=5) and C57Bl/6J mice that received the Western diet for 6 months (n=6).\nThe slides were coded, without the pathologist knowing the specific treatment group that the slides represented. The histology was graded according to a number of histologic features. The degree of fat was graded as to the approximate percentage of hepatocytes containing fat: 0, absent; +/−, less than 5%; 1+, 5-25%; 2+. 26-50%; 3+, 51-75%; 4+, >75%. The fat was also assessed as to whether it was totally macrovesicular, predominantly macrovesicular, totally microvesicular, predominantly microvesicular, or mixed macro- and microvesicular. In addition, the zone was assessed as to whether the fat was perivenular, periportal, diffuse, or focal. Inflammation was graded as absent, scanty (1 to 3 foci/slide), present (scattered, with 4 to 10 foci/slide), present + (scattered, >10 foci/slide but not numerous), and present ++ (numerous). The type of inflammation was graded as totally mononuclear, predominantly mononuclear, totally neutrophilic, predominantly neutrophilic, and mixed mononuclear-neutrophilic. The hydropic change of hepatocytes was graded as absent, mild, and moderate/severe, with the location noted as perivenular, focal or diffuse."}, "[2]": {"tested_on": "murine hepatic stellate cells (HSC)", "test": "Culture-induced activation of primary hepatic stellate cells (ASMA and oil red O staining)", "assay_type": "cell-based, mouse", "method": "Murine hepatic stellate cells (HSC) were isolated by collagenase/pronase digestion and Stractan density gradient centrifugation^16. α-Smooth muscle actin (ASMA) staining: HSC were cultured on glass coverslips and fixed with 10% formaldehyde (EM Science, Gibbstown, N.J.) for 20 minutes at room temperature. Cells were incubated with a mouse monoclonal anti-ASMA (1:250 or 1:50, as indicated), followed by a rabbit anti-mouse IgG TRITC conjugate (1:50, Santa Cruz Scientific, Santa Cruz, Calif.). Slides were examined using a Nikon PCM-2000 confocal microscope with a Nikon Eclipse TE300 microscope with a plan Apo 60×/1.4 aperture oil immersion objective, 543-nm laser, and Simple PCI software from the C-Imaging series from Nikon/Compix Inc (Cranberry Township Pa.). Values were obtained by counting the number of ASMA positive cells in 15 randomly selected fields in triplicate. […]\nTo examine the mechanism of action of D-4F, murine hepatic stellate cells (HSC) were cultured on plastic for 7 days in the absence or presence of 10 μg/ml D-4F. Without D-4F, 87±2% of cells expressed α-smooth muscle actin (ASMA) after 7 days as assessed by confocal microscopy. In contrast, in the presence of D-4F 0% of HSC expressed ASMA after 7 days (see FIG. 7)."}, "[3]": {"tested_on": "C57Bl/6J mice", "test": "Western diet model: α-smooth muscle actin staining of liver sections", "assay_type": "in vivo, mouse", "conditions": "mice on the Western diet treated with D-4F (FIG. 4E)", "method": "as §1\nSections of formalin-fixed, paraffin-embedded liver, 7 μm thick, were used for α-smooth muscle actin immunofluorescence staining. Slides were deparaffinized in xylene and serially rehydrated in graded ethanol (100-70%). Slides were treated with 0.1 M tris-HCl (pH 7.6)/0.05 Tween-20 for 5 min, incubated with 1 μg/ml proteinase K (Sigma, St Louis Mo.)) for 15 min at room temperature, and then rinsed in water for 10 min. […]"}, "[4]": {"tested_on": "C57Bl/6J mice", "test": "Western diet model: fibrosis by Sirius red whole-section-scanning morphometric image analysis", "assay_type": "in vivo, mouse", "method": "as §1\nSirius red staining was performed by the Morphology core of the USC-UCLA Research Center for Alcoholic Liver and Pancreatic Diseases. α-Smooth muscle actin.\nTissue sections stained with Sirius red were scanned by a third-generation Automated Cellular Imaging System (ACIS III), a highly automated microscope-based digital imaging system (Carl Zeiss MicroImaging AIS Inc., Aliso Viejo Calif.). The color of the Sirius red staining in the digitized tissue sections was determined and applied to a pre-existing algorithm that provides the area of a target color in μm^2. The outline of each digitized tissue section was manually traced using the computer's mouse. Areas of large portal tracts and central veins were also outlined manually. The total area (μm^2) of each tissue section and of the total area of large portal tracts and central veins were determined by the image analysis system. The area of fibrosis was calculated as [total area stained by Sirius red minus perivascular staining] as a percentage of the size of the tissue section. This method has the advantage of scanning the entire section, rather than measuring fibrosis in randomly chosen fields."}, "[5]": {"conditions": "group 3 vs group 1, Western diet 9.5 months, D-4F last 2.5 months"}, "[6]": {"conditions": "7 months Western diet followed by 2.5 months Western diet + drug"}, "[7]": {"conditions": "7 months Western diet followed by 2.5 months chow + drug"}},
  "note": "Values joined by “and” are separate entries in the source; they are usually repeats but may differ in a detail not shown here. Identical values can stand only once. “Also recorded” adds a separate entry of the source. Non-standard residues stand in square brackets, D forms with d.",
  "data": [
    {"substance": "Ac-D-W-F-K-A-F-Y-D-K-V-A-E-K-F-K-E-A-F-NH2 (Ac-[dD][dW][dF][dK][dA][dF][dY][dD][dK][dV][dA][dE][dK][dF][dK][dE][dA][dF]-NH2; not fully specified; printed as Ac-D-W-F-K-A-F-Y-D-K-V-A-E-K-F-K-E-A-F-NH2) [D-4F]", "values": [
      {"measurement": "inflammation, histologically", "setting": "[1]; [5]", "value": "some evidence of a reduction"},
      {"measurement": "steatosis, histologically", "setting": "[1]; [5]", "value": "no effect"},
      {"measurement": "inflammation, histologically", "setting": "[1]; group 6 (switch to chow plus D-4F) vs group 4 (switch to chow)", "value": "perhaps a small decrease"},
      {"measurement": "Fatty Change Degree of fat", "setting": "[1]; [6]", "value": 4},
      {"measurement": "Fatty Change Type (predominant type)", "setting": "[1]; [6]", "value": "Macrovesicular"},
      {"measurement": "Inflammatory Clusters", "setting": "[1]; [6]", "value": "3 (3×) and 2"},
      {"measurement": "Fatty Change Degree of fat", "setting": "[1]; [7]", "value": "2 (2×) and 0 and 3"},
      {"measurement": "Fatty Change Type (predominant type)", "setting": "[1]; [7]", "value": "Mixed"},
      {"measurement": "Inflammatory Clusters", "setting": "[1]; [7]", "value": "1 and 2 (3×)"},
      {"measurement": "steatohepatitis (summary)", "setting": "[1]; summary statement", "value": "did not alter steatohepatitis"},
      {"measurement": "cytoplasmic fat (lipid) droplets, oil red O staining", "setting": "[2]; HSC cultured 7 days in the presence of D-4F vs without", "value": "maintain significantly more lipid droplets; also recorded: maintained cytoplasmic fat droplets"},
      {"measurement": "hepatic stellate cell activation in vitro", "setting": "[2]; summary statement", "value": "prevented hepatic stellate cell activation"},
      {"measurement": "activated stellate cells in liver sections (α-smooth muscle actin staining)", "setting": "[3]", "value": "decrease in activated stellate cells"},
      {"measurement": "fibrosis (surface area positive for Sirius red staining)", "setting": "[4]; group 3: Western diet 9.5 months, D-4F 125 μg/mouse/day in drinking water last 2.5 months, group 1 without drug 4.6±1.9%", "value": 1.25, "unit": "%"},
      {"measurement": "fibrosis (surface area positive for Sirius red staining)", "setting": "[4]; group 6: 7 months Western diet, then 2.5 months chow plus D-4F, group 4 chow alone 2.8±0.7%", "value": "0.9±0.2", "unit": "%"},
      {"measurement": "progression of fibrosis after onset of steatohepatitis", "setting": "[4]; summary statement", "value": "prevented progression of fibrosis"}
    ]}
  ]
}
